The structures appear in SMILES notation.

What all share (format): biochemical
For one assay, the target named is T1, PDE1C (2–634) (Homo sapiens, UniProt Q14123).
T1 construct: PDE1C (2–634)
The assay can be described thus: PDE selectivity enzymatic assay, PDE1C. As to conditions: Table 2 selectivity panel.

In a further assay the target is T2, PDE4D2 (86–413) (Homo sapiens, UniProt Q08499).
T2 construct: PDE4D2 (86–413)
Put plainly: PDE selectivity enzymatic assay, PDE4D2. The conditions noted are these: Table 2 selectivity panel.

Assay [1] addresses T3, PDE2A (catalytic domain, 580–919) (Homo sapiens, UniProt O00408).
T3 construct: made in house; host or cells: E. coli BL21 (CodonPlus)
Put plainly: In vitro PDE2 enzymatic inhibition assay (3H-cGMP substrate). As to conditions: for inhibition at 0.1 µM / inhibition at 0.5 µM: PDE2; for inhibition at 0.1 µM: compound at 0.1 μM, read-out: Inhibition Ratio (%) 0.1 μM; for inhibition at 0.5 µM: compound at 0.5 μM, read-out: Inhibition Ratio (%) 0.5 μM; for IC50: means ± SD of three experiments, 3H-cGMP, 25 °C, 15 min, read-out: IC50 (nM) against PDE2. As for the experimental part: Purification and expression of the recombinant pET15b-PDE2A plasmid (catalytic domain, 580–919) was performed following our previously reported method. The plasmid pET15b-PDE2A (catalytic domain, 580–919) was transferred to thawed competent E. coli BL21 cells (CodonPlus, Agilent Technologies, Santa Clara, CA, USA), which were grown in 2XYT medium with 100 μg/mL ampicillin and 20 μg/mL chloramphenicol at 37 °C until OD600 = 0.6–0.8. Then, 0.1 mM isopropylthiogalactoside was added for induction, and protein expression was induced by continuing to grow the cells at 16 °C for 24 h. After that, bacteria were collected by centrifugation and frozen overnight at −20 °C. The bacteria containing the recombinant plasmid of the target protein were subjected to cell disruption and passed through a Ni-NTA agarose affinity column, Q-Sepharose ion-exchange column and other steps. The purity can be 95% or more, and a typical purification batch produces 10–20 mg of PDE2A protein from 1.0 L of cell culture.
Using the appropriate concentration of ^3H-cGMP as the substrate, different compound solutions were added to the test group, DMSO was added to the negative control and blank control groups, and EHNA was added to the positive control group, followed by protein solution (the proteins were all diluted with Assay Buffer); Assay Buffer was added to the blank group. The enzymatic reaction was performed at room temperature (25 °C) for 15 min, and then, 0.2 M ZnSO4 was added to inactivate PDE2 and to stop the reaction. Then, 0.2 N Ba(OH)2 solution was added to precipitate the reaction product, and unreacted ^3H-cGMP remained in the supernatant. After mixing the system, it was centrifuged. The radioactivity of the supernatant was measured with a liquid scintillation counter, and the inhibitory activity of the compound against PDE2 was calculated. The above test was repeated three times (the IC50 test generally used 9 concentrations, and the single-point test was directly diluted with DMSO to the required concentration).

T3 sequence (O00408 580-919): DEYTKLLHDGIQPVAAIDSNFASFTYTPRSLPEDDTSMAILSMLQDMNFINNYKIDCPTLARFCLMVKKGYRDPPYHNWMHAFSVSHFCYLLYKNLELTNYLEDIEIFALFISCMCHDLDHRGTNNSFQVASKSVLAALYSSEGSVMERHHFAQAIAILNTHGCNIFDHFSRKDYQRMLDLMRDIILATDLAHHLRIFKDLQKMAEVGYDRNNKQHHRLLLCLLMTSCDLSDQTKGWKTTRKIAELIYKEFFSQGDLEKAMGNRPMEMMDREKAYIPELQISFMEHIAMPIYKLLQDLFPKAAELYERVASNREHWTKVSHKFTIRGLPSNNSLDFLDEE
T2 sequence (Q08499 388-715): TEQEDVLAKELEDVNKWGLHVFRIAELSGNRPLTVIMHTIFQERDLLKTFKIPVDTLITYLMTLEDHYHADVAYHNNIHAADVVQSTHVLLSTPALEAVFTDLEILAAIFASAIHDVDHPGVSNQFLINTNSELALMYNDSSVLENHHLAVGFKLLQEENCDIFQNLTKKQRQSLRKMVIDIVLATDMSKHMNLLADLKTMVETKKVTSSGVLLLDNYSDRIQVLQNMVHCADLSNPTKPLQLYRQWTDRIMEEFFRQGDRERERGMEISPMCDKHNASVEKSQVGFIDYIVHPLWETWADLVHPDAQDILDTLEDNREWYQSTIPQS
T1 sequence (Q14123 2-634 isoform Q14123-2): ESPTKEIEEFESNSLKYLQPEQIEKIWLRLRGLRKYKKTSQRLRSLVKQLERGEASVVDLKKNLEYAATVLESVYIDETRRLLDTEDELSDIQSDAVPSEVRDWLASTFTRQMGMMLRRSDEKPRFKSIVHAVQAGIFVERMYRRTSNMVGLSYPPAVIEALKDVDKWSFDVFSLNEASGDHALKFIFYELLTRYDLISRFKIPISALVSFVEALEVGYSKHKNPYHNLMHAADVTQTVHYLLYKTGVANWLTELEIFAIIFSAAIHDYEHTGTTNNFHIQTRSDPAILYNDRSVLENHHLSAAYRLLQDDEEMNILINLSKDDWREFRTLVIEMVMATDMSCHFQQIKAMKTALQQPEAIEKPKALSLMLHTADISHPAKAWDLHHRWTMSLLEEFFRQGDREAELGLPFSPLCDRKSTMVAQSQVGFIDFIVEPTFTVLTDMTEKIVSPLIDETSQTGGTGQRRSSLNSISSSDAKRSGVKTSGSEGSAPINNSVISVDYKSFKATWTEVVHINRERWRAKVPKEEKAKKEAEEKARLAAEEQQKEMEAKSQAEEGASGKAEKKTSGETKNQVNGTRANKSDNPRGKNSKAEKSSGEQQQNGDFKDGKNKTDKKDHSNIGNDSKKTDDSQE

At PDE1C (2–634), `COc1ccc(OCc2ccc(C(F)(F)F)cc2)c(C2C(C#N)=C(N)Oc3[nH]nc(C)c32)c1` (single isomer, unassigned; (+)) [(+)-11h] yielded an IC50 of 8760 ± 668 nM. The molecule also registered an IC50 against PDE4D2 (86–413) of over 10000 nM. In assay [1], the inhibition at 0.1 µM came out at 75.9%, the inhibition at 0.5 µM was determined as 93.6% and the IC50 was determined as 41.5 ± 3.4 nM.
With `Cc1n[nH]c2c1C(c1cc(OC(F)(F)F)ccc1OCc1ccc(C(F)(F)F)cc1)C(C#N)=C(N)O2` (stereo not drawn) [Compound 11p, 6-Amino-3-methyl-4-(5-(trifluoromethoxy)-2-((4-(trifluoromethyl)benzyl)oxy)phenyl)-1,4-dihydropyrano[2,3-c]pyrazole-5-carbonitrile], the inhibition at 0.5 µM in assay [1] worked out at 17.4%.
The same measure, in the same setting: under `Cc1n[nH]c2c1C(c1cc(OC(F)F)ccc1OCc1ccc(C(F)(F)F)cc1)C(C#N)=C(N)O2` (stereo not drawn) [Compound 11q, 6-Amino-4-(5-(difluoromethoxy)-2-((4-(trifluoromethyl)benzyl)oxy)phenyl)-3-methyl-1,4-dihydropyrano[2,3-c]pyrazole-5-carbonitrile] stands 6.6%.
With `COc1ccc(OCc2ccc(C(F)(F)F)cc2)c(C2C(C#N)=C(N)Oc3[nH]ncc32)c1` (stereo not drawn) [Compound 11r, 6-Amino-4-(5-methoxy-2-((4-(trifluoromethyl)benzyl)oxy)phenyl)-1,4-dihydropyrano[2,3-c]pyrazole-5-carbonitrile], in assay [1], the inhibition at 0.1 µM worked out at 22.7%, the inhibition at 0.5 µM came to 60.5% and the IC50 was determined as 445.3 ± 3.4 nM.
On to `COc1ccc(OCc2ccc(C(F)(F)F)cc2)c(C2C(C#N)=C(N)Oc3[nH]nc(-c4ccccc4)c32)c1` (stereo not drawn) [Compound 11s, 6-Amino-4-(5-methoxy-2-((4-(trifluoromethyl)benzyl)oxy)phenyl)-3-phenyl-1,4-dihydropyrano[2,3-c]pyrazole-5-carbonitrile], for which, in assay [1], the inhibition at 0.1 µM worked out at 46.3%, the inhibition at 0.5 µM is 75.3% and the IC50 came out at 154 ± 6.2 nM.
Turning to `COc1cc(C2C(C#N)=C(N)Oc3[nH]nc(C)c32)c(OCc2ccc(C(F)(F)F)cc2)cc1Cl` (stereo not drawn) [Compound 11t, 6-Amino-4-(4-chloro-5-methoxy-2-((4-(trifluoromethyl)benzyl)oxy)phenyl)-3-methyl-1,4-dihydropyrano[2,3-c]pyrazole-5-carbonitrile], the inhibition at 0.5 µM in assay [1] was found to be 10.3%.
On the same count and under the same terms, in the case of `COc1ccc(OCc2ccc(C(F)(F)F)cc2)c(C2C(C#N)=C(N(C)C)Oc3[nH]nc(C)c32)c1` (stereo not drawn) [Compound 16, 6-(Dimethylamino)-4-(5-methoxy-2-((4-(trifluoromethyl)benzyl)oxy)phenyl)-3-methyl-1,4-dihydropyrano[2,3-c]pyrazole-5-carbonitrile] it was 9.6%.

For the origin of these results see PMC8160813, “Design, Synthesis, and Evaluation of Dihydropyranopyrazole Derivatives as Novel PDE2 Inhibitors for the Treatment of Alzheimer’s Disease” (Molecules, 2021).
